Patent US10159252B2, “Fungicidal compounds and compositions” (AgroFresh Inc., priority 2015, dated 2018)
Where a name gives a salt, the structure may show the parent alone.

Assays:
Penicillium expansum [1] = test: In vivo volatile bioassay on inoculated fruit (apple, pear); conditions: P. expansum, 10 mg/L headspace, sublimed, 3 day treatment plus additional 3 days at 21° C.
Experimental: (§1) To assess the in vivo activity of volatile antimicrobial compound of Sample 1 (see Example 1) in fruit, a volatile bioassay is developed using apple, pear, orange, strawberry, grape and blueberry. Two apples, two oranges, two pears, eight strawberries, sixteen grapes or thirty blueberries (per rep, in duplicate) are placed in a clamshell with the stem end facing up for all fruits except for strawberry (stem end facing downwards). A fresh wound is inoculated with 20 μL 1×10^6 per mL Penicillium expansum (P. expansum) spore suspension (apple and pear), 20 μL×1×10^6 per mL Penicillium digitatum (P. digitatum) spore suspension (orange), and 20 μL×1×10^6 (strawberry and grape) or 10 μL (blueberry) of 1×10^5 per mL Botrytis cinerea (B. cinerea) spore suspension. The clamshells are placed inside a 117 L Rubbermaid storage box (Cat #2244), and the lids closed.
(§2) Sample 1, prepared according to Example 1 and dissolved in acetone, is pipetted onto a cotton strip, where the acetone is allowed to evaporate for 5 min, and then introduced into the container by a sublimation device (copper tube heated to 200° C. with fan flow at 0.5 liters per minute (L/min)) to achieve a final headspace concentration of 10 mg/L). The containers are then held for 3 d at 21° C. After treatment, the fruits are held for an additional 3 d at 21° C., then evaluated for disease incidence (millimeter (mm) diameter of browning or water-soaked lesions) and pathogen sporulation (mm diameter) for apple, pear and orange, as well as Botrytis cinerea disease incidence (%) and severity (0 to 4) for strawberry, grape and blueberry. Results are summarized in Table 2 showing good in vivo antimicrobial control of three fungal pathogens on six different hosts when applied as a volatile fungicide. Results are also depicted in FIG. 1.

Penicillium expansum [2] = test: In vitro volatile inhibition assay, 12-well plate, half-strength PDA; assay type: cell-based; conditions: P. expansum, 3 d at 23° C.; for percent growth relative to control: volatile
Experimental: (§3) A 12-well microtiter plate (6.5 milliliter (mL) volume per well) is used for the in vitro inhibition assay for volatile antimicrobial compound of Sample 1 (see Example 1) against two plant fungal pathogens. A 3-mL volume of half-strength Potato Dextrose Agar (PDA) is added to each well. After cooling, 1 microliter (μL) of 1×10^5 spores per mL of Botrytis cinerea (B. cinerea) or Penicillium expansum (P. expansum) suspension is spotted to the center of the agar. A Whatman #1 filter disk (Cat. No. 1001-0155) is placed, in duplicate, on the underside of a polyethylene polymerase chain reaction (PCR) plate sealing film.
(§4) For determination of the minimum inhibitory concentration (MIC), the test compound is diluted in acetone, and the appropriate amount of compound added to disks in a dose dependent manner to achieve a final headspace concentration of 35.7 to 0.03 milligrams per liter (mg/L). The acetone is permitted to evaporate for 5 min. The headspace around the inoculum is then sealed inside the well by the film with the adhering disk containing the fungicide. The plates are inverted, placed over the treated disks and sealed to prevent any of the chemical from flaking from the disk and falling onto the inoculated agar. After 3 days (d) of storage at 23° C., cultures are evaluated for percent growth relative to control. Results are summarized in Table 1 showing the ability of benzoxaborole compound of Sample 1 to control the growth of two fungal plant pathogens through volatile activity.

Botrytis cinerea [3] = test: as above; assay type: cell-based; conditions: B. cinerea, 3 d at 23° C.; for percent growth relative to control: volatile
Experimental: as §3, §4

Botrytis cinerea [4] = test: In vivo volatile bioassay on inoculated fruit (strawberry, grape, blueberry); conditions: B. cinerea, 10 mg/L headspace, sublimed, 3 day treatment plus additional 3 days at 21° C.
Experimental: as §1, §2

Penicillium digitatum = test: In vivo volatile bioassay on inoculated fruit (orange); conditions: P. digitatum, 10 mg/L headspace, sublimed, 3 day treatment plus additional 3 days at 21° C.
Description: To assess the in vivo activity of volatile antimicrobial compound of Sample 1 (see Example 1) in fruit, a volatile bioassay is developed using apple, pear, orange, strawberry, grape and blueberry. Two apples, two oranges, two pears, eight strawberries, sixteen grapes or thirty blueberries (per rep, in duplicate) are placed in a clamshell with the stem end facing up for all fruits except for strawberry (stem end facing downwards). […]
as §2, with “The containers are then held for 3 d at 21° C.” left out, “Results are summarized in Table 2 showing good in vivo antimicrobial control of three fungal pathogens on six different hosts when applied as a volatile fungicide. Results are also depicted in FIG. 1.” left out

[5] = headspace concentration 0.03 mg/L
[6] = headspace concentration 0.07 mg/L
[7] = headspace concentration 0.1 mg/L
[8] = headspace concentration 0.3 mg/L
[9] = headspace concentration 0.6 mg/L
[10] = headspace concentration 1.1 mg/L
[11] = headspace concentration 2.2 mg/L
[12] = headspace concentration 4.5 mg/L
[13] = headspace concentration 8.9 mg/L
[14] = headspace concentration 17.9 mg/L
[15] = headspace concentration 35.7 mg/L
[16] = Penicillium expansum, 72 h, applied as a volatile fungicide, headspace concentration
[17] = Botrytis cinerea, 72 h, applied as a volatile fungicide, headspace concentration

Fc1ccc2c(c1)CO[B-]2(F)F [Sample 1, potassium 1,1,5-trifluoro-1,3-dihydro-2,1-benzoxaborolate salt]
Browning (mm) (Penicillium expansum [1]; Apple): 4.8 mm
Sporulation (mm) (Penicillium expansum [1]; Apple): 7.3 mm
Browning (mm) (Penicillium expansum [1]; Pear): 5.3 mm
Sporulation (mm) (Penicillium expansum [1]; Pear): 4.3 mm
percent growth relative to control (Penicillium expansum [2]; [5]): −2.7%
percent growth relative to control (Penicillium expansum [2]; [6]): −1.9%
percent growth relative to control (Penicillium expansum [2]; [7]): −3.3%
percent growth relative to control (Penicillium expansum [2]; [8]): −8.2%
percent growth relative to control (Penicillium expansum [2]; [9]): 12.9%
percent growth relative to control (Penicillium expansum [2]; [10]): 56.2%
percent growth relative to control (Penicillium expansum [2]; [11]): 73%
percent growth relative to control (Penicillium expansum [2]; [12]): 100%
percent growth relative to control (Penicillium expansum [2]; [13]): 100%
percent growth relative to control (Penicillium expansum [2]; [14]): 100%
percent growth relative to control (Penicillium expansum [2]; [15]): 100%
EC50 (Penicillium expansum [2]; [16]): 1.2 µg/mL
MIC (Penicillium expansum [2]; [16]): 4.5 µg/mL
percent growth relative to control (Botrytis cinerea [3]; [5]): 0%
percent growth relative to control (Botrytis cinerea [3]; [6]): 0%
percent growth relative to control (Botrytis cinerea [3]; [7]): 0%
percent growth relative to control (Botrytis cinerea [3]; [8]): 0%
percent growth relative to control (Botrytis cinerea [3]; [9]): 64.8%
percent growth relative to control (Botrytis cinerea [3]; [10]): 100%
percent growth relative to control (Botrytis cinerea [3]; [11]): 100%
percent growth relative to control (Botrytis cinerea [3]; [12]): 100%
percent growth relative to control (Botrytis cinerea [3]; [13]): 100%
percent growth relative to control (Botrytis cinerea [3]; [14]): 100%
percent growth relative to control (Botrytis cinerea [3]; [15]): 100%
EC50 (Botrytis cinerea [3]; [17]): 0.5 µg/mL
MIC (Botrytis cinerea [3]; [17]): 1.1 µg/mL
Incidence (%) (Botrytis cinerea [4]; Blueberry): 5.0%
Severity (0-4) (Botrytis cinerea [4]; Blueberry): 0.06
Incidence (%) (Botrytis cinerea [4]; Grape): 23.3%
Severity (0-4) (Botrytis cinerea [4]; Grape): 0.12
Incidence (%) (Botrytis cinerea [4]; Strawberry): 6.3%
Severity (0-4) (Botrytis cinerea [4]; Strawberry): 0.03
Sporulation (mm) (Penicillium digitatum): 0.0 mm
Water soaked lesion (mm) (Penicillium digitatum): 12.7 mm
